The source of these data is patent US11549075B2, “Benzyl hemiformal-containing biodiesel mixtures” (LANXESS Deutschland GmbH, priority 2019, dated 2023).

Data set [1] is described as follows: Solubility of benzyl hemiformal in petrodiesel without biodiesel content. The class given is physicochemical. To be noted: for Solubility of benzyl hemiformal in petrodiesel 100%: undiluted BHF stirred into petrodiesel. On the procedure: 1) Benzyl Hemiformal—Solubility in Petrodiesel without Biodiesel Content
While stirring, BHF was mixed with petrodiesel in 0.01% steps. The following solubilities of BHF in petrodiesel were determined: […]

Data set [2] is described as follows: Solubility of benzyl hemiformal in B7 diesel fuel (petrodiesel with 7% by volume of biodiesel). Type of data set: physicochemical. The following applies: for Solubility of benzyl hemiformal in B7 diesel fuel: undiluted BHF. The text has this:
2) Benzyl Hemiformal—Solubility in B7 Diesel Fuel (Petrodiesel with 7% by Volume of Biodiesel)

`OCOCc1ccccc1` [benzyl hemiformal]: the “Solubility of benzyl hemiformal in petrodiesel 100%” value in data set [1] (0.01 % BHF) was “dissolved to give clear solution”; in data set [1] (0.02 % BHF) it was “dissolved to give clear solution”; in data set [1] (0.03 % BHF), “undissolved fractions”; in data set [1] (0.04 % BHF) it was “undissolved fractions”. In addition, the “Solubility of BHF in petrodiesel (in words)” value in data set [1] (room temperature) is “only poorly soluble”. For the same compound, the “Amount of undiluted BHF that can be incorporated into petrodiesel to give a clear solution” value in data set [1] (undiluted BHF, petrodiesel without biodiesel) is “approx. 200 ppm”. The “Solubility of benzyl hemiformal in B7 diesel fuel” value is on record as “dissolved to give clear solution” in data set [2] (0.01 % BHF), “dissolved to give clear solution” in data set [2] (0.02 % BHF), “undissolved fractions” in data set [2] (0.03 % BHF) and “undissolved fractions” in data set [2] (0.04 % BHF). For the same compound, in data set [2] (B7 diesel fuel), the “Amount of undiluted BHF that can be incorporated into B7 diesel fuel to give a clear solution” value is on record as “approx. 200 ppm”.
